One experiment has as its target T1, GPR6 (Homo sapiens, UniProt P46095).
T1 construct: expressed in transfected cells; 293 cells are used elsewhere
The experiment can be described thus: membrane-based cyclic AMP confirmation assay (Example 4C). The class given is biochemical. Particulars: mean +/- standard deviation (number of assays in brackets); read-out: IC50 Values Cyclic AMP Assay Example 4C. An excerpt:
Using an independent assay approach to provide confirmation of a directly identified candidate compound as set forth above, it is preferred that a confirmation assay then be utilized. In this case, the preferred confirmation assay is membrane-based cyclic AMP (cAMP) assay.
A modified Flash Plate™ Adenylyl Cyclase kit (New England Nuclear; Cat. No. SMP004A) was utilized for confirmation of candidate compounds directly identified as inverse agonists and agonists to endogenous, constitutively activated orphan GPCRs in accordance with the following protocol.
Transfected stable cells were harvested approximately three days after transfection. Membranes were prepared by homogenization of suspended cells in buffer containing 20 mM HEPES, pH 7.4 and 10 mM MgCl2. Homogenization was performed on ice using a Brinkman Polytron™ for approximately 10 seconds. The resulting homogenate was centrifuged at 20,000 rpm for 20 minutes at 4° C. The resulting pellet was then resuspended in buffer containing 20 mM HEPES, pH 7.4 and 0.1 mM EDTA, homogenized for 10 seconds, followed by centrifugation at 20,000 rpm for 20 minutes at 4° C. The resulting pellet can be stored at −80° C. until utilized. On the day of direct identification screening, the membrane pellet is slowly thawed at room temperature, resuspended in buffer containing 20 mM HEPES, pH 7.4, 100 mM NaCl and 10 mM MgCL2, to yield a final protein concentration of 0.60 mg/ml (the resuspended membranes are placed on ice until use).
Candidate compounds identified as per above (if frozen, thawed at room temperature) were added to plate wells (3 μl/well; 12 μM final assay concentration), together with 50 μl Membrane Protein (30 μg/well) and 50 μl of Assay Buffer. This admixture was then incubated for 30 minutes at room temperature, with gentle shaking.
Following the incubation, 100 μl of Detection Buffer was added to each well, followed by incubation for 2-20 hours. Plates were subsequently aspirated and then counted in a Wallac MicroBeta™ plate reader using “Prot. #31” (as per manufacturer instructions).

The target of another experiment is T2, GPR6:Gsα-Fusion Protein (Homo sapiens, UniProt P46095).
T2 construct: expressed in transfected cells
In words: [35S]GTPγS membrane binding assay (Example 4A). The experiment is classed as biochemical. Particulars: mean +/- standard deviation (number of assays in brackets); read-out: IC50 Values GTP Assay Example 4A. The protocol: The assay plates were then centrifuged at 400 rpm for 15 minutes at room temperature and then subsequently aspirated and counted in a scintillation counter.
Membranes expressing the GPCR6:Gsα-Fusion Protein (see Example 2) and for use in the direct identification of candidate compounds as inverse agonists, agonists or partial agonists were prepared as follows:
All materials were kept on ice throughout the procedure. Firstly, the media was aspirated from a confluent monolayer of cells, followed by rinse with 10 ml cold PBS, followed by aspiration. Thereafter, 5 ml of membrane Scrape Buffer was added to scrape cells; this was followed by transfer of cellular extract into 50 ml centrifuge tubes (centrifuged at 20,000 rpm for 17 minutes at 4° C.). Thereafter, the supernatant was aspirated and the pellet was resuspended in 30 ml Membrane Wash Buffer followed by centrifuge at 20,000 rpm for 17 minutes at 4° C. The supernatant was then aspirated and the pellet resuspended in Binding Buffer. This was then homogenized using a Brinkman polytron™ homogenizer (15-20 second bursts until the all material was in suspension). This is referred to herein as “Membrane Protein”.
Candidate compounds (Tripos, Inc., St. Louis, Mo.) were received in 96-well plates (these can be frozen at −80° C.). Membrane Protein (or membranes with expression vector excluding the GPR6:Gsα-Fusion Protein, as control), were homogenized briefly until in suspension. Protein concentration was then determined using the Bradford Protein Assay set forth above. […] Thereafter, 100 ul GDP Buffer was added to each well of a Wallac Scintistrip™ (Wallac). A 5 ul pin-tool was then used to transfer 5 ul of a candidate compound into such well (i.e., 5 ul in total assay volume of 200 ul is a 1:40 ratio such that the final screening concentration of the candidate compound is 10 uM). Again, to avoid contamination, after each transfer step the pin tool was rinsed in three reservoirs comprising water (1×), ethanol (1×) and water (2×)—excess liquid should be shaken from the tool after each rinse and dried with paper towels and kimwipes™. Thereafter, 50 ul of Membrane Protein was added to each well (a control well comprising membranes without the GPCR Fusion Protein is also utilized), and pre-incubated for 5-10 minutes at room temperature (the plates were covered with foil in that the candidate compounds obtained from Tripos are light sensitive). Thereafter, 50 ul of [^35S]GTPγS (0.6 nM) in Binding Buffer was added to each well, followed by incubation on a shaker for 60 minutes at room temperature (again, in this example, plates were covered with foil). The assay was then stopped by spinning of the plates at 4000 RPM for 15 minutes at 22° C. The plates were then aspirated with an 8 channel manifold and sealed with plastic plate covers. The plates were then read on a Wallac 1450 using setting “Prot. #37” (as per manufacturer instructions).
The initial or “primary” screen designed to directly identify, e.g., human GPR6 receptor inverse agonists, consisted of the membrane-based GTPγS binding assay of Example 4A utilizing membranes prepared from 293 stable cells. Candidate compounds directly identified as inhibiting receptor-mediated increases in GTPγS as set forth below were considered active “leads”.
It is preferred that following such direct identification, IC50 (inverse agonist) or EC50 (agonist) values be determined; those having ordinary skill in the art are credited with utilizing IC50 and EC50 assay protocols of choice. FIG. 4 provides a representative IC50 curve for compound ARE112 using the assay protocol of Example 4A.

A short description of experiment [1]: Food/water intake and body weight in 24-hour food deprived rats, oral gavage (PO). The experiment is classed as in vivo, rat. How it is done:
Based upon the in vivo data developed, oral bioavailability of compound ARE112 was determined. The compound was administered by oral gavage at doses ranging from 6.75 to 54 mg/kg. The data presented in FIGS. 9A and 9B support the conclusion that oral administration of ARE112 also decreases food intake in both food-deprived and non-food deprived rats. […] In FIG. 9A, rats were deprived 24 hours prior to oral administration of the compound. In this assay, the vehicle-treated rats at 2.5 hours consumed […] of food while injected rats; particularly rats administered with 27 and 54 mg/kg of ARE 112, ate about 6 and 4 grams, respectively. […] (See, FIG. 9A).
Several other GPR6 inverse agonists were also assessed under 24-hour food deprived conditions, with PO administration. The analogs listed below were tested at 200 μmol/kg, which is equivalent to 54 mg/kg. In addition, ARE114 was also assessed at […]. Data are summarized below in Table C:
In a second assay, tested under the same conditions, several other analogs were assessed at 100 μmol/kg.
In FIG. 10, rats were deprived 24 hours prior to oral administration of the compound. In this assay, analogs ARE130, ARE135, ARE136, and ARE140, were administered at a dose of 100 μmol/kg. Three analogs, particularly, ARE130, ARE136 and ARE140 evidenced a slow intake of food (e.g., about 1 to 1.5 grams every two hours) over an eight hour period post-administration; while the vehicle rat consumed about 2 to 2.5 grams food every two hours. Similar to the vehicle rat, analog ARE135, an opened ring structure, evidenced that over an eight hour period post-administration the rats increasingly consumed about 2.5 grams every two hours. (See, FIG. 10A). Furthermore, the body weight of the vehicle rat and administered rats with analog ARE135 gained about 19.5 grams. On the other hand, the closed ring structures evidenced a decrease in body weight gain as follows: ARE112-6 grams, ARE130-9 grams, ARE136-11 grams and ARE140-14 grams. See, FIG. 10C.

[2] abbreviates: 100 μmol/kg PO, second assay, Table D, vehicle 19.25.

Structures are written as SMILES.

T1 sequence (P46095 whole entry): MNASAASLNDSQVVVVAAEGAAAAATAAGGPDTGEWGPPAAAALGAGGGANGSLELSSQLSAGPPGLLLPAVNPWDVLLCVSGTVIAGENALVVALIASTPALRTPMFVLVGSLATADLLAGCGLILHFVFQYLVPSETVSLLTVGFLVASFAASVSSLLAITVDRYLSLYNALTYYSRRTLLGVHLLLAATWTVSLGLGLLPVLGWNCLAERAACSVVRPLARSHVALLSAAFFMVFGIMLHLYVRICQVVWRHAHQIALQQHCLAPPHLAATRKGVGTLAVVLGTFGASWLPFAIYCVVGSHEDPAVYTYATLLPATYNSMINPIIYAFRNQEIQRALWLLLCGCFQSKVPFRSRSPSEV
T2 sequence (P46095 with tags, fused parts or gaps): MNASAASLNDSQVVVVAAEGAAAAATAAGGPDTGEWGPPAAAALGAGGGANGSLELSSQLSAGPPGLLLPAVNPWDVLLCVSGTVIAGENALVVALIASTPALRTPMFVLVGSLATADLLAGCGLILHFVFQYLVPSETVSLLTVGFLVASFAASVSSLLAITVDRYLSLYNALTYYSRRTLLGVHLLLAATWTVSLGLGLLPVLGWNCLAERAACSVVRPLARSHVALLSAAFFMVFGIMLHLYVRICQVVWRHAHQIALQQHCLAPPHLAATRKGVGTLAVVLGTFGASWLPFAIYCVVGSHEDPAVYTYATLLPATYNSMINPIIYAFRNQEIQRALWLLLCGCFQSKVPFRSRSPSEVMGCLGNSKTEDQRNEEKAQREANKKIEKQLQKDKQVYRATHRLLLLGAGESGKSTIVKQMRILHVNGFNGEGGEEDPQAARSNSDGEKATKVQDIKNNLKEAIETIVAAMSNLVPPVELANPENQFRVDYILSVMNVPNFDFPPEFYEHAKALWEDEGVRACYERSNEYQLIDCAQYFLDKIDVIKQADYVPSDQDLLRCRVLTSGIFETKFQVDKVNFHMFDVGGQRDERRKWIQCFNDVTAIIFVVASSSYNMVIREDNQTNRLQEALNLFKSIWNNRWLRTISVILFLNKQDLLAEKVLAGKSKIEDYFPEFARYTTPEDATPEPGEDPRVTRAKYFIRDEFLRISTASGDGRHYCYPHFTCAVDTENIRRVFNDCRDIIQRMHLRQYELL

Consider `O=C(NC(=S)N1CCNC1=S)c1cccc(F)c1` [ARE129, N-(2-thioxo-imidazolidine-1-carbothioyl)-3-fluorobenzamide], for which the IC50 – broadly, the concentration at which inhibition is half-maximal – came to 2620 nM at GPR6 and 3190 nM at GPR6:Gsα-Fusion Protein. On to `O=C(NC(=S)N1CCNC1=S)c1ccc(F)cc1` [ARE127, N-(2-thioxo-imidazolidine-1-carbothioyl)-4-fluorobenzamide], for which the half-maximal inhibitory concentration (IC50) is 480 nM at GPR6 and 1250 nM at GPR6:Gsα-Fusion Protein.

In the case of `O=C(N=C1SSC2=NCCN21)c1cnn(-c2ccc(Cl)cc2)c1C(F)(F)F` [ARE152, N-(5,6dihydro-3H-imidazo[2,1-c]-1,2,4-dithiazol-3-ylidene)-2-(4-chlorophenyl)-3-(trifluoromethyl)pyrazole-4-carboxamide], the IC50 at GPR6:Gsα-Fusion Protein was 190 nM. In the case of `O=C(/N=C1\SSC2=NCCN21)c1cccc2ccccc12` [ARE138, N-(5,6-dihydro-3H-imidazo[2,1-c]-1,2,4-dithiazol-3-ylidene)-naphthyl-1-carboxamide], the 50% inhibitory concentration (IC50) came out at 130 nM at GPR6 and 450 nM at GPR6:Gsα-Fusion Protein. In the case of `O=C(NC(=S)N1CCNC1=S)c1cnn(-c2ccc(Cl)cc2)c1C(F)(F)F` [ARE153, N-(2-thioxo-imidazolidine-1-carbothioyl)-2-(4-chlorophenyl)-3-(trifluoromethyl)pyrazole-4-carboxamide], the IC50 at GPR6:Gsα-Fusion Protein worked out at 2460 nM. Regarding `O=C(NC(=S)N1CCNC1=S)c1ccco1` [ARE143, N-(2-thioxo-imidazolidine-1-carbothioyl)-furan-2-carboxamide], the half-maximal inhibitory concentration (IC50) on GPR6 was 160000 nM; on GPR6:Gsα-Fusion Protein, 68300 nM.

As for `O=C(N=C1SSC2=NCCN21)c1ccc(C(F)(F)F)cc1` [ARE116, N-(5,6-dihydro-3H-imidazo[2,1-c]-1,2,4-dithiazol-3-ylidene)-4-trifluoromethylbenzamide], the IC50 was 170 nM at GPR6 and 570 nM on GPR6:Gsα-Fusion Protein. In the same order, the values of `Cc1noc(C)c1C(=O)/N=C1\SSC2=NCCN21` [ARE148] are 350 nM and 460 nM. Turning to `O=C(N=C1SSC2=NCCN21)c1ccccc1F` [ARE132, N-(5,6-dihydro-3H-imidazo[2,1-c]-1,2,4-dithiazol-3-ylidene)-2-fluorobenzamide], the IC50 at GPR6 is 100 nM; at GPR6:Gsα-Fusion Protein it was 350 nM. With `COc1ccc(C(=O)NC(=S)N2CCNC2=S)cc1` [ARE121, N-(2-thioxo-imidazolidine-1-carbothioyl)-4-methoxybenzamide], the IC50 is 55000 nM at GPR6 and 122000 nM on GPR6:Gsα-Fusion Protein. Regarding `O=C(N=C1SSC2=NCCN21)c1ccc(F)cc1F` [ARE134, N-(5,6-dihydro-3H-imidazo[2,1-c]-1,2,4-dithiazol-3-ylidene)-2,4-difluorobenzamide], the IC50 turned out to be 190 nM on GPR6 and 410 nM on GPR6:Gsα-Fusion Protein. For the compound `O=C(NC(=S)N1CCNC1=S)c1ccc(Cl)cc1` [ARE119, N-(2-thioxo-imidazolidine-1-carbothioyl)-4-chlorobenzamide], the half-inhibitory concentration (IC50) at GPR6 was 1970 nM; on GPR6:Gsα-Fusion Protein, 450 nM. Take `O=C(NC(=S)N1CCNC1=S)c1ccccc1` [ARE113, N-(2-thioxo-imidazolidine-1-carbothioyl)-benzamide]: on GPR6:Gsα-Fusion Protein, the 50% inhibitory concentration (IC50) stood at 100000 nM. On to `CC(C)(C)c1ccc(C(=O)N=C2SSC3=NCCN32)cc1` [ARE118, N-(5,6-dihydro-3H-imidazo[2,1-c]-1,2,4-dithiazol-3-ylidene)-4-tert-butylbenzamide], for which the results for the IC50 at GPR6 and on GPR6:Gsα-Fusion Protein were 370 nM and 650 nM, respectively.

On to `COc1ccc(C(=O)N=C2SSC3=NCCN32)cc1` [ARE122, N-(5,6-dihydro-3H-imidazo[2,1-c]-1,2,4-dithiazol-3-ylidene)-4-methoxybenzamide], for which the results for the IC50 at GPR6 and at GPR6:Gsα-Fusion Protein were 210 nM and 830 nM, respectively. `CSc1ncccc1C(=O)NC(=S)N1CCNC1=S` [ARE154, N-(2-thioxo-imidazolidine-1-carbothioyl)-pyridine-2-methylthio-3-carboxamide]: the IC50 at GPR6 amounted to 80000 nM. Take `Cc1cccc(C(=O)N=C2SSC3=NCCN32)c1` [ARE126, N-(5,6-dihydro-3H-imidazo[2,1-c]-1,2,4-dithiazol-3-ylidene)-3-methylbenzamide]: the IC50 on GPR6 came out at 140 nM; on GPR6:Gsα-Fusion Protein, 790 nM. For `O=C(NC(=S)N1CCNC1=S)c1cccc2ccccc12` [ARE137, N-(2-thioxo-imidazolidine-1-carbothioyl)-naphthyl-1-carboxamide], at GPR6, the IC50 was 100000 nM. As to `O=C(NC(=S)N1CCNC1=S)c1ccccc1F` [ARE131, N-(2-thioxo-imidazolidine-1-carbothioyl)-2-fluorobenzamide], the half-maximal inhibitory concentration (IC50) at GPR6:Gsα-Fusion Protein is 43000 nM. Take `O=C(/N=C1\SSC2=NCCN21)c1ccc2ccccc2c1` [ARE136]: the “Cumulative Food Intake (g) (8 hr post administration)” value in experiment [1] (100 μmol/kg PO, second assay, Table D, vehicle 14.0) is recorded as 9.0 g. For the same compound, in experiment [1] (setting [2]), the “Body Weight Gain (g) (6 hr post administration)” value is 11.0 g and the “Cumulative Water Intake (g) (6 hr post administration)” value is recorded as 15.25 g. Moreover, the “water drunk less than the vehicle animal (FIG. 10B)” value in experiment [1] (100 μmol/kg oral) was around 4 grams. The “body weight gain (FIG. 10C)” value in experiment [1] (100 μmol/kg oral, vehicle about 19.5 grams) is 11 grams.

The values are drawn from US6420563B1, “Small molecule modulators of G protein-coupled receptor six” (Arena Pharmaceuticals, Inc., priority 1998, dated 2002).
